# Assay results from ChEMBL document CHEMBL5131429, “Synthesis and antifungal evaluation of phenol-derived bis(indolyl)methanes combined with FLC against Candida albicans” (Bioorg Med Chem Lett, 2022).
# Activity calls are given as the source filed them. The calls are words filed in the database; no cut-off is given here.
# Experiments:
# [1] = test system: Candida albicans; assay: Antifungal activity against Candida albicans SC5314 by microdilution method; assay type: functional
# [2] = test system: Candida albicans; assay: Antifungal activity against Candida albicans CA23 by microdilution method; assay type: functional
# [3] = test system: Candida albicans; assay: Antifungal activity against Candida albicans SC5314 in presence of fluconazole by microdilution method; assay type: functional
# [4] = test system: Candida albicans; assay: Antifungal activity against Candida albicans CA23 in presence of fluconazole by microdilution method; assay type: functional
# [5] = test system: Candida albicans; assay: Antifungal activity against Candida albicans SC5314 assessed as fractional inhibitory concentration index in presence of fluconazole by microdilution method; assay type: functional
# [6] = test system: Candida albicans; assay: Antifungal activity against Candida albicans CA23 assessed as fractional inhibitory concentration index in presence of fluconazole by microdilution method; assay type: functional
# [7] = test system: Candida albicans; assay: Antifungal activity against Candida albicans ATCC14053 by microdilution method; assay type: functional
# [8] = test system: Candida albicans; assay: Antifungal activity against Candida albicans CA187 by microdilution method; assay type: functional
# [9] = test system: Candida albicans; assay: Antifungal activity against Candida albicans CA800 by microdilution method; assay type: functional
# [10] = test system: Candida albicans; assay: Antifungal activity against Candida albicans CA3816 by microdilution method; assay type: functional
# [11] = test system: Candida albicans; assay: Antifungal activity against Candida albicans CA3511 by microdilution method; assay type: functional
# [12] = test system: Candida albicans; assay: Antifungal activity against Candida albicans CA5408 by microdilution method; assay type: functional
# [13] = test system: Candida albicans; assay: Antifungal activity against Candida albicans CA558 by microdilution method; assay type: functional
# [14] = test system: Candida albicans; assay: Antifungal activity against Candida albicans CA602 by microdilution method; assay type: functional
# [15] = test system: Candida albicans; assay: Induction of mitochondrial membrane potential loss in Candida albicans at 1 ug/ml after 16 hrs by JC-1 staining based fluorescence microplate reader; assay type: functional, organism-based; conditions: dose 1.0 µg/ml
# [16] = Cytotoxicity against PBMC (unknown origin) by MTT assay; assay type: toxicity, cell-based
# [17] = Cytotoxicity against human 16HBE by MTS assay; assay type: toxicity, cell-based; conditions: 16HBE14o- cells
SMILES,MIC80 [1],MIC80 [2],MIC80 [3],MIC80 [4],fractional inhibitory concentration index (FICI) [5],fractional inhibitory concentration index (FICI) [6],MIC80 [7],MIC80 [8],MIC80 [9],MIC80 [10],MIC80 [11],MIC80 [12],MIC80 [13],MIC80 [14],Activity [15],CC50 [16],CC50 [17]
Oc1ccc(Cl)cc1C(c1c[nH]c2ccccc12)c1c[nH]c2ccccc12,> 200 µg/mL,> 200 µg/mL,3.27 µg/mL,31.8 µg/mL,0.12,0.1,,,,,,,,,,,
OC(Cn1cncn1)(Cn1cncn1)c1ccc(F)cc1F [FLUCONAZOLE],5.79 µg/mL,> 200 µg/mL,,,,,> 200 µg/mL,> 200 µg/mL,> 200 µg/mL,> 200 µg/mL,> 200 µg/mL,> 200 µg/mL,> 200 µg/mL,> 200 µg/mL,Active,676 µg/mL,> 1000 µg/mL
Oc1c(Cl)cc(Cl)cc1C(c1c[nH]c2ccccc12)c1c[nH]c2ccccc12,> 200 µg/mL,> 200 µg/mL,0.55 µg/mL,5.88 µg/mL,0.02,0.02,,,,,,,,,,,
Oc1cc(F)c(Br)cc1C(c1c[nH]c2ccccc12)c1c[nH]c2ccccc12,4.97 µg/mL,> 200 µg/mL,0.82 µg/mL,5.95 µg/mL,0.2,0.02,,,,,,,,,,,
Oc1ccc(Br)cc1C(c1c[nH]c2ccccc12)c1c[nH]c2ccccc12,> 200 µg/mL,> 200 µg/mL,3.58 µg/mL,5.81 µg/mL,0.13,0.02,,,,,,,,,,,
COc1ccc(C(c2c[nH]c3ccccc23)c2c[nH]c3ccccc23)c(O)c1,1.85 µg/mL,32.7 µg/mL,1.01 µg/mL,5.79 µg/mL,0.58,0.18,,,,,,,,,,,
Oc1cc(F)ccc1C(c1c[nH]c2ccccc12)c1c[nH]c2ccccc12,> 200 µg/mL,> 200 µg/mL,15.5 µg/mL,7.4 µg/mL,0.58,0.02,,,,,,,,,,,
Oc1c(Br)cc(Br)cc1C(c1c[nH]c2ccccc12)c1c[nH]c2ccccc12,> 200 µg/mL,> 200 µg/mL,2.85 µg/mL,6.01 µg/mL,0.11,0.02,,,,,,,,,,,
Cc1ccc(O)c(C(c2c[nH]c3ccccc23)c2c[nH]c3ccccc23)c1,23.2 µg/mL,> 200 µg/mL,4.28 µg/mL,5.83 µg/mL,0.33,0.02,,,,,,,,,,,
